Source: PMC4907692, “Engineering vanilloid-sensitivity into the rat TRPV2 channel” (eLife, 2016)

Tests used:
Type in all cases: cell-based
TRPV1 S512F/E570Q = biological target: T1, TRPV1 S512F/E570Q (Rattus norvegicus, UniProt O35433, E570Q/S512F); assay: Two-electrode voltage-clamp in Xenopus oocytes, TRPV1 S512F/E570Q; conditions: 100 nM RTx
T1 construct: expressed in transfected cells; host or cells: Xenopus oocytes (cRNA injection)
Source text: (§1) To further investigate the putative vanilloid binding pocket in TRPV1, we inspected the cryo-EM structure of TRPV1, looking for residues that are located nearby to the putative RTx density (Figure 1B; regions/residues highlighted in yellow) and that differ between TRPV1 and TRPV2 channels (Figure 3—figure supplement 1; regions highlighted in magenta). […] To quantify the contribution of each of these residues to TRPV1 channel activation by RTx under our experimental conditions, we mutated each to the corresponding residue in TRPV2. We then expressed each construct in oocytes and used the two electrode voltage-clamp technique to study activation by RTx and by the non-specific TRPV channel activator 2-APB. We recorded time courses for channel activation by each agonist while stepping the membrane potential from −60 to +60 mV every 3 s from a holding potential of 0 mV using an external recording solution containing 100 mM KCl (internal K^+ concentration in a healthy oocyte is 100 mM) (Figure 3A, left). We also recorded current-voltage (I-V) relations by stepping over a wider range of voltages in the absence and presence of activators, or in the presence of ruthenium red (RR), a non-specific inhibitor of TRP channels (Figure 3A, right). […]

[1] = biological target: T2, TRPV2 triple mutant that retained F472 (Rattus norvegicus, UniProt Q9WUD2, L507M/L510T/Q530E); assay: Two-electrode voltage-clamp in Xenopus oocytes, TRPV2 triple mutant retaining F472; conditions: 100 nM RTx, +60 mV, normalized to 4 mM 2-APB
T2 construct: expressed in transfected cells; host or cells: Xenopus oocytes (cRNA injection)
T2 sequence (Q9WUD2 whole entry L507M/L510T/Q530E): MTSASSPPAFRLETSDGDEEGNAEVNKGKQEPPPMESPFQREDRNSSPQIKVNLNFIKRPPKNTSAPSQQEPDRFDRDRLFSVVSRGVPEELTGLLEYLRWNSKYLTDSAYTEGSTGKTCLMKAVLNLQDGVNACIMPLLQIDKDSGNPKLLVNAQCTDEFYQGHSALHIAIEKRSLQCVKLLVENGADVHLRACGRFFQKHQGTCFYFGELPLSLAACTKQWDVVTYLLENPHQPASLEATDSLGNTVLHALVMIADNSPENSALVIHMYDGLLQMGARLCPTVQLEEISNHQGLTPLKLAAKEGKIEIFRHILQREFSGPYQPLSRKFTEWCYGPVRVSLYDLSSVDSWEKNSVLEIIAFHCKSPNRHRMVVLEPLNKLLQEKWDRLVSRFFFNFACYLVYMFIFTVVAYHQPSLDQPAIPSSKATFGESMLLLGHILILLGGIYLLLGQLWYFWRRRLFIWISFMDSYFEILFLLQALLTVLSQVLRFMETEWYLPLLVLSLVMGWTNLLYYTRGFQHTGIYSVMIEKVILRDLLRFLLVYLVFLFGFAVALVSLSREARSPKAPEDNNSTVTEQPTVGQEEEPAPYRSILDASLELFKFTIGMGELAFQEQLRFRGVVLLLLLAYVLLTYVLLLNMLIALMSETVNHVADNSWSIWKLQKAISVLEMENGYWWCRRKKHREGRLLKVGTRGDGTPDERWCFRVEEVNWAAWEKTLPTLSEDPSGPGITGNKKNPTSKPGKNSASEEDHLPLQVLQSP
Source text: as §1

[2] = biological target: T3, TRPV1 QM (S512F, M547L, T550L, E570Q) (Rattus norvegicus, UniProt O35433, E570Q/M547L/S512F/T550L); assay: Two-electrode voltage-clamp in Xenopus oocytes, TRPV1 QM; conditions: 100 nM RTx
T3 construct: expressed in transfected cells; host or cells: Xenopus oocytes (cRNA injection)
T3 sequence (O35433 whole entry S512F/M547L/T550L/E570Q): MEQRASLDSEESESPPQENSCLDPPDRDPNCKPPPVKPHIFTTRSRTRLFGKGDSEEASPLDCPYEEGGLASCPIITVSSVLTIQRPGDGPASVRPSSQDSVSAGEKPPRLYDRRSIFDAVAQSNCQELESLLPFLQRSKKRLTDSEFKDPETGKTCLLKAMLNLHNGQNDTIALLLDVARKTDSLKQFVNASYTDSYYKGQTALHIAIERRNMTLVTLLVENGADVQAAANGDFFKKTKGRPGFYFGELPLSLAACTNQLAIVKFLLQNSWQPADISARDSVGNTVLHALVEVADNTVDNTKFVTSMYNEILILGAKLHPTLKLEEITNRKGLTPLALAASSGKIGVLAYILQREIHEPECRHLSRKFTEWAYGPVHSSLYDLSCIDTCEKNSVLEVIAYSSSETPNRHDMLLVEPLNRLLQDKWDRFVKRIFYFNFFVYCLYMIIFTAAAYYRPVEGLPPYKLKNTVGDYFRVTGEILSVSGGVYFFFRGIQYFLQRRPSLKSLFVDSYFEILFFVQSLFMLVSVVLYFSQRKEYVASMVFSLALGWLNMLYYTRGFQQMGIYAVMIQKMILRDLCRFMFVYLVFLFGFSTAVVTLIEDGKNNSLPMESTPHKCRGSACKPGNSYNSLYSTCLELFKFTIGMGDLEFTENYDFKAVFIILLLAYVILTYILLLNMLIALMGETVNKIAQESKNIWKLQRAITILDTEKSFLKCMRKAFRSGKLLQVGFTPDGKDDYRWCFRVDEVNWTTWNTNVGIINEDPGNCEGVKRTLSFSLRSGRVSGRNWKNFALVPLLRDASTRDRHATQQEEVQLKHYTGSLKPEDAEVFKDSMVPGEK
Source text: as §1

TRPV2 F472S/Q530E = biological target: T4, TRPV2 F472S/Q530E (Rattus norvegicus, UniProt Q9WUD2, F472S/Q530E); assay: Two-electrode voltage-clamp in Xenopus oocytes, TRPV2 F472S/Q530E; conditions: 100 nM RTx
T4 construct: expressed in transfected cells; host or cells: Xenopus oocytes (cRNA injection)
T4 sequence (Q9WUD2 whole entry F472S/Q530E): as the sequence (Q9WUD2 whole entry L507M/L510T/Q530E) above, with F472S, M507L, T510L counted along it

TRPV1 S512F = biological target: T5, TRPV1 S512F (Rattus norvegicus, UniProt O35433, S512F); assay: Two-electrode voltage-clamp in Xenopus oocytes, TRPV1 S512F; conditions: 100 nM RTx
T5 construct: expressed in transfected cells; host or cells: Xenopus oocytes (cRNA injection)
T5 sequence (O35433 whole entry S512F): as the sequence (O35433 whole entry S512F/M547L/T550L/E570Q) above, with L547M, L550T, Q570E counted along it
Source text: as §1

WT TRPV1 = biological target: T6, WT TRPV1 (Rattus norvegicus, UniProt O35433); assay: Two-electrode voltage-clamp in Xenopus oocytes, WT TRPV1; conditions: 100 nM RTx, +60 and -60 mV
T6 construct: expressed in transfected cells; host or cells: Xenopus oocytes (cRNA injection, pGEM-HE)
T6 sequence (O35433 whole entry): as the sequence (O35433 whole entry S512F/M547L/T550L/E570Q) above, with F512S, L547M, L550T, Q570E counted along it
Source text: To further investigate the putative vanilloid binding pocket in TRPV1, we inspected the cryo-EM structure of TRPV1, looking for residues that are located nearby to the putative RTx density (Figure 1B; regions/residues highlighted in yellow) and that differ between TRPV1 and TRPV2 channels (Figure 3—figure supplement 1; regions highlighted in magenta). […] To quantify the contribution of each of these residues to TRPV1 channel activation by RTx under our experimental conditions, we mutated each to the corresponding residue in TRPV2. We then expressed each construct in oocytes and used the two electrode voltage-clamp technique to study activation by RTx and by the non-specific TRPV channel activator 2-APB. We recorded time courses for channel activation by each agonist while stepping the membrane potential from −60 to +60 mV every 3 s from a holding potential of 0 mV using an external recording solution containing 100 mM KCl (internal K^+ concentration in a healthy oocyte is 100 mM) (Figure 3A, left). We also recorded current-voltage (I-V) relations by stepping over a wider range of voltages in the absence and presence of activators, or in the presence of ruthenium red (RR), a non-specific inhibitor of TRP channels (Figure 3A, right).
The WT rat TRPV1 and TRPV2 channels in the pcDNA3.1 vector were kindly provided by Dr. David Julius (UCSF) ([Caterina et al., 1997]; [Caterina et al., 1999]) and subcloned into the pGEM-HE vector ([Liman et al., 1992]). Mutations were introduced into rTRPV1 using a two-step PCR mutagenesis technique and the resulting constructs were verified by sequencing. All channel constructs were expressed in Xenopus oocytes and studied following 1–4 days incubation after cRNA injection (incubated at 17°C in 96 mM NaCl, 2 mM KCl, 5 mM HEPES, 1 mM MgCl2 and 1.8 mM CaCl2, 50 μg/ml gentamycin, pH 7.6 with NaOH) using the two-electrode voltage-clamp recording technique (OC-725C, Warner Instruments, Hamden, CT) with a 150 μl recording chamber. Data were filtered at 1–3 kHz and digitized at 20 kHz using pClamp software (Molecular Devices, Sunnyvale, CA). […]

TRPV2 QM = biological target: T7, TRPV2 QM (Rattus norvegicus, UniProt Q9WUD2, F472S/L507M/L510T/Q530E); assay: Single channel inside-out patch recording of TRPV2 QM in HEK293 cells; conditions: 100 nM RTx, patch containing a single channel, recording of approximately 8 min
T7 construct: expressed in transfected cells; host or cells: Xenopus oocytes (cRNA injection)
T7 sequence (Q9WUD2 1-761 F472S/L507M/L510T/Q530E): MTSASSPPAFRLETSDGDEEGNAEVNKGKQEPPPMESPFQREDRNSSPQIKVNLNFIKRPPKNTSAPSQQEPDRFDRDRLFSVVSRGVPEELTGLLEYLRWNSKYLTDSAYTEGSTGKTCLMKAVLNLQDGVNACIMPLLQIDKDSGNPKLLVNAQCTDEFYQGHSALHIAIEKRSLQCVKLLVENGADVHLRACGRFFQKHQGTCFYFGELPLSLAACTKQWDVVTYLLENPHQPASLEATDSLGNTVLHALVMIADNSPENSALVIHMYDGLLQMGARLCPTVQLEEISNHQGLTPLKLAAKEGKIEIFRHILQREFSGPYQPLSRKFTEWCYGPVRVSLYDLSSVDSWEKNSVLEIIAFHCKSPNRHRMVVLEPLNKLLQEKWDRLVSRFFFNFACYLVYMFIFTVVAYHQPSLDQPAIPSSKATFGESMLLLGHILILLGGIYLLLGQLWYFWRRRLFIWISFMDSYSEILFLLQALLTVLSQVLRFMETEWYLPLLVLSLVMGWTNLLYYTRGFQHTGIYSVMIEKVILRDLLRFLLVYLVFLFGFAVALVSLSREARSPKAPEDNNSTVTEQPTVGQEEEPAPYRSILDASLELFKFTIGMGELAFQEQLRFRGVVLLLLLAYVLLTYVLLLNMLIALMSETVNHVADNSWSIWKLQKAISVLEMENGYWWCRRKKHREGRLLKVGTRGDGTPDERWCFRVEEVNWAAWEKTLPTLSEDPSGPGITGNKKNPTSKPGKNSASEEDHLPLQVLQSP

T1 sequence (O35433 whole entry S512F/E570Q): as the sequence (O35433 whole entry S512F/M547L/T550L/E570Q) above, with L547M, L550T counted along it

C=C(C)[C@]12C[C@@H](C)[C@@]34O[C@](Cc5ccccc5)(O[C@@H]1[C@@H]3C=C(COC(=O)Cc1ccc(O)c(OC)c1)C[C@]1(O)C(=O)C(C)=C[C@@H]41)O2 [RTx, resiniferatoxin]
channel activation by RTx (TRPV1 S512F/E570Q): retained RTx sensitivity | channel activation by RTx [1]: insensitive to RTx | channel activation by RTx [2]: completely lost sensitivity | channel activation by RTx (TRPV2 F472S/Q530E): unresponsive | dissociation of RTx after removal from the recording chamber (TRPV1 S512F): could readily see dissociation of RTx | channel activation by RTx (WT TRPV1): effectively irreversible activation | open probability (Po) (TRPV2 QM): ~1
